This test addresses ASK1 (Homo sapiens (Human), UniProt Q99683). In words: HTRF KinEASE Assay (TR-FRET, STK3 peptide substrate), inhibition of ASK1. It counts as biochemical. Particulars: 5 nM ASK1 kinase, 1 μM STK3 peptide substrate, 100 μM ATP, 3 hours; compound 0 to 10 μM. As to the method: Assay HTRF® KinEASE™ Assay
ASK1 was purchased from Thermofisher (Catalogue # PV4011), ATP was purchased from Sigma (Catalogue # A7699), HI-TRF® KinEASE™ Assay System was obtained from Cisbio (Bedford, Mass.). […] HTRF® KinEASE™-STK is a generic method for measuring serine/threonine kinase activities using a time-resolved fluorescence resonance energy transfer (TR-FRET) immunoassay. […] 100 Um ATP is added to start kinase reaction and incubated for 3 hours. The STK3-antibody labeled with Eu^3+-Cryptate and 125 Nm streptavidin-XL665 are mixed in a single addition with stop reagents provided by the Cisbio kit used to stop the kinase reaction. […] The resulting TR-FRET is proportional to the phosphorylation level. Staurosporine was used as the positive control. IC50 was determined by Xlfit 5.3.
By using above method, the inhibition of ASK1 was evaluated for the compounds of Formula (I).
For orientation: Time-resolved FRET reads energy transfer from a long-lived donor to a nearby acceptor.

Chain of ASK1 (Q99683 whole entry): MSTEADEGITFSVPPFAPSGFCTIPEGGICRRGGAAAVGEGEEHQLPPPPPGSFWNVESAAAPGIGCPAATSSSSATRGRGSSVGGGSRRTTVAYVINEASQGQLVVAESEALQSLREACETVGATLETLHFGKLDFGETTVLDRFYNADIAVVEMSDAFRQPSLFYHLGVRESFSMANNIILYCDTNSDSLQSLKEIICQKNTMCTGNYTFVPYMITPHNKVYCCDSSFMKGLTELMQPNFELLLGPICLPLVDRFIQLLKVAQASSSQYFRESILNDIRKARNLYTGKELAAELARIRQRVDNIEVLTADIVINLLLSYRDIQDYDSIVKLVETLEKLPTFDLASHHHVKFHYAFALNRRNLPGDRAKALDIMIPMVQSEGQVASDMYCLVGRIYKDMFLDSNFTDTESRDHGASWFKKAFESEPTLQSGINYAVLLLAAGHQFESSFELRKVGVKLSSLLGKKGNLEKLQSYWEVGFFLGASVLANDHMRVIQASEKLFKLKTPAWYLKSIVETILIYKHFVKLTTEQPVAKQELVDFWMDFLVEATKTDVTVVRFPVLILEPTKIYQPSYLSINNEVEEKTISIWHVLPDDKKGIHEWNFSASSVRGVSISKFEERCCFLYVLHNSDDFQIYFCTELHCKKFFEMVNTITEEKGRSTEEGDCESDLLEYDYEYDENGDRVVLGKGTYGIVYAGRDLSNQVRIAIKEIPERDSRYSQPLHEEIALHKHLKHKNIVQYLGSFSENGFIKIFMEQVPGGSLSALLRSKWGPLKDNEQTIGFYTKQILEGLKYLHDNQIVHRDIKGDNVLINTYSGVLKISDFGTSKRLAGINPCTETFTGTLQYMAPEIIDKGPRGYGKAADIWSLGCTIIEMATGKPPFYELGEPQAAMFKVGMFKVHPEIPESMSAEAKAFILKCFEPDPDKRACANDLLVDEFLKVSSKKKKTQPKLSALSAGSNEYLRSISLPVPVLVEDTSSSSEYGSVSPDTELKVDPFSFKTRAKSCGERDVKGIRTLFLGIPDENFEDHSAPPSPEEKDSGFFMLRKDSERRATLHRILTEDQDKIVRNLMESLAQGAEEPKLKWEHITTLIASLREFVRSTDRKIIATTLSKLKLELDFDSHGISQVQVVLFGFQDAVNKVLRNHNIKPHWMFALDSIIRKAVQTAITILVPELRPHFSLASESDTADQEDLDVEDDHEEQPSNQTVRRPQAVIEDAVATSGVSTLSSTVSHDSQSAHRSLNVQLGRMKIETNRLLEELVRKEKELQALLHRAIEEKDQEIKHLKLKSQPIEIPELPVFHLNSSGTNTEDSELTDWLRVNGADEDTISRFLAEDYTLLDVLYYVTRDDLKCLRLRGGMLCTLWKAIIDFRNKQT

Regarding `C[C@H](CO)n1nnnc1-c1cccc(NC(=O)c2cc3c(cn2)CCN(C(=O)C(C)(C)C)C3)n1` [Example 152], the IC50 – broadly, the concentration that gives 50% inhibition – was in the range of 0.001 to 0.01 µM.

`CC(C)n1nnnc1-c1cccc(NC(=O)c2cc3c(cc2F)CCN(C(=O)OC2CCCC2)C3)n1` [Example 57]: the IC50 was 0.01 to 0.1 µM.

In turn, `CCn1cc(CNC(=O)N2CCc3cnc(C(=O)Nc4cccc(-c5nnnn5[C@H](C)CO)n4)cc3C2)cn1` [Example 187] returned an IC50 of under 0.001 µM.

`CC(C)n1nnnc1-c1cccc(NC(=O)c2cc3c(cn2)CCN(S(=O)(=O)CCC(F)(F)F)C3)n1` [Example 172] returned an IC50 of 0.001 to 0.01 µM.

Compound `CC(C)CC(=O)N1CCc2cnc(C(=O)Nc3cccc(-c4nnnn4[C@H](C)CO)n3)cc2C1` [Example 151] registered a half-inhibitory concentration (IC50) of 0.001 to 0.01 µM.

In turn, `CC(C)c1nnnn1-c1cccc(NC(=O)c2cc3c(cc2F)CCN(C(=O)N(C)CCC(F)(F)F)C3)n1` [Example 99] returned a half-inhibitory concentration (IC50) of 0.1 to 1 µM.

The compound `COCCS(=O)(=O)N1Cc2ccc(C(=O)Nc3cccc(-c4nncn4C(C)C)n3)cc2C1` [Example 6] returned an IC50 of 0.1 to 1 µM.

`CCN1CCc2cc(F)c(C(=O)Nc3cccc(-c4nnnn4C(C)C)n3)cc2C1=O` [Example 98, 2-ethyl-6-fluoro-N-(6-(1-isopropyl-1H-tetrazol-5-yl)pyridin-2-yl)-1-oxo-1,2,3,4-tetrahydroisoquinoline-7-carboxamide]: the 50% inhibitory concentration (IC50) was over 1 µM.

In the case of `CCN1CCN(C(=O)N2CCc3cc(F)c(C(=O)Nc4cccc(-c5nnnn5C(C)C)n4)cc3C2)C(=O)C1=O` [Example 90], the IC50 was 0.01 to 0.1 µM.

On to `CCOC(=O)N1CCc2cnc(C(=O)Nc3cccc(-c4nnnn4[C@H](C)CO)n3)cc2C1` [Example 145], for which the 50% inhibitory concentration (IC50) lay within 0.001 to 0.01 µM.

`CC(C)OC(=O)N1CCc2cnc(C(=O)Nc3cccc(-c4nnnn4[C@H](C)CO)n3)cc2C1` [Example 162, isopropyl (R)-7-((6-(1-(1-hydroxypropan-2-yl)-1H-tetrazol-5-yl)pyridin-2-yl)carbamoyl)-3,4-dihydro-2,6-naphthyridine-2(1H)-carboxylate] yielded an IC50 of 0.001 to 0.01 µM.

For the compound `C[C@H](CO)n1nnnc1-c1cccc(NC(=O)c2cc3c(cn2)CCN(C(=O)OCC(C)(C)C)C3)n1` [Example 159], the IC50 lay in the range of 0.001 to 0.01 µM.

`CC(=O)OC[C@@H](C)n1nnnc1-c1cccc(NC(=O)c2cc3c(cc2F)CCN(C(=O)OCc2ccccc2)C3)n1` [Example 109] came in with an IC50 of over 1 µM.

In turn, `C[C@H](CO)n1nnnc1-c1cccc(NC(=O)c2cc3c(cn2)CCN(C(=O)OC2CCC2)C3)n1` [Example 157] had an IC50 of 0.001 to 0.01 µM.

For `C[C@H](CO)n1nnnc1-c1cccc(NC(=O)c2cc3c(cn2)CCN(CC2CC2)C3)n1` [Example 163, (R)-6-(cyclopropylmethyl)-N-(6-(1-(1-hydroxypropan-2-yl)-1H-tetrazol-5-yl)pyridin-2-yl)-5,6,7,8-tetrahydro-2,6-naphthyridine-3-carboxamide], the half-inhibitory concentration (IC50) is 0.001 to 0.01 µM.

The compound `CCN(C)C(=O)N1CCc2cc(F)c(C(=O)Nc3cccc(-c4nncn4C(C)C)n3)cc2C1` [Example 45] registered an IC50 of 0.001 to 0.01 µM.

Compound `CC(C)n1cnnc1-c1cccc(NC(=O)c2cc3c(cc2F)CCN(C(=O)OC2CCCC2)C3)n1` [Example 25] displayed a half-inhibitory concentration (IC50) of 0.001 to 0.01 µM.

In the case of `CC(C)N1Cc2cc(F)c(C(=O)Nc3cccc(-c4nncn4C(C)C)n3)cc2C1=O` [Example 177, 6-fluoro-2-isopropyl-N-(6-(4-isopropyl-4H-1,2,4-triazol-3-yl)pyridin-2-yl)-3-oxoisoindoline-5-carboxamide], the concentration for half-maximal inhibition (IC50) is over 1 µM.

For the compound `CC(C)n1nnnc1-c1cccc(NC(=O)c2cc3c(cn2)CN(C(=O)OCc2ccccc2)C3)n1` [Example 180], the IC50 is over 1 µM.

Take `CCCOC(=O)N1CCc2ccc(C(=O)Nc3cccc(-c4nncn4C(C)C)n3)cc2C1` [Example 35]: the IC50 lay in the range of 0.01 to 0.1 µM.

`CC(C)n1nnnc1-c1cccc(NC(=O)c2cc3c(cc2F)CCNC3)n1` [Example 58]: the IC50 was 0.1 to 1 µM.

The compound `CCn1cc(COC(=O)N2CCc3cnc(C(=O)Nc4cccc(-c5nnnn5[C@H](C)CO)n4)cc3C2)cn1` [Example 188, (1-ethyl-1H-pyrazol-4-yl)methyl (R)-7-((6-(1-(1-hydroxypropan-2-yl)-1H-tetrazol-5-yl)pyridin-2-yl)carbamoyl)-3,4-dihydro-2,6-naphthyridine-2(1H)-carboxylate] displayed an IC50 of 0.001 to 0.01 µM.

For `C[C@H](CO)n1nnnc1-c1cccc(NC(=O)c2cc3c(cn2)CCN(C=O)C3)n1` [Example 142, (R)-6-formyl-N-(6-(1-(1-hydroxypropan-2-yl)-1H-tetrazol-5-yl)pyridin-2-yl)-5,6,7,8-tetrahydro-2,6-naphthyridine-3-carboxamide], the IC50 was in the range of 0.001 to 0.01 µM.

For the compound `CC(C)n1cnnc1-c1cccc(NC(=O)c2ccc3c(c2)CN(C(=O)NC2CCCC2)CC3)n1` [Example 61], the IC50 is 0.01 to 0.1 µM.

In the case of `COCCS(=O)(=O)N1CCc2cc(F)c(C(=O)Nc3cccc(-c4nnnn4C(C)C)n3)cc2C1` [Example 55], the IC50 is 0.01 to 0.1 µM.

With `C[C@H](CO)n1nnnc1-c1cccc(NC(=O)c2cc3c(cc2F)CCN(C(=O)N(C)CC(F)(F)F)C3)n1` [Example 75, (R)-6-fluoro-N7-(6-(1-(1-hydroxypropan-2-yl)-1H-tetrazol-5-yl)pyridin-2-yl)-N2-methyl-N2-(2,2,2-trifluoroethyl)-3,4-dihydroisoquinoline-2,7(1H)-dicarboxamide], the IC50 is 0.01 to 0.1 µM.

In turn, `C[C@H](CO)n1nnnc1-c1cccc(NC(=O)c2cc3c(cn2)CCN(C(=O)N(C)C2CCCC2)C3)n1` [Example 184, (R)—N2-cyclopentyl-N7-(6-(1-(1-hydroxypropan-2-yl)-1H-tetrazol-5-yl)pyridin-2-yl)-N2-methyl-3,4-dihydro-2,6-naphthyridine-2,7(1H)-dicarboxamide] had an IC50 of over 1 µM.

`CC(C)n1nnnc1-c1cccc(NC(=O)c2cc3c(cn2)CCN(C(=O)N(C)C)C3)n1` [Example 116] yielded an IC50 of 0.001 to 0.01 µM.

Compound `C[C@H](CO)n1nnnc1-c1cccc(NC(=O)c2cc3c(cc2F)CCN(C(=O)N2CCCC2)C3)n1` [Example 76] yielded an IC50 of 0.001 to 0.01 µM.

`COCCC(=O)N1CCc2ccc(C(=O)Nc3cccc(-c4nncn4C(C)C)n3)cc2C1` [Example 60] had an IC50 of 0.01 to 0.1 µM.

Compound `CC(C)n1nnnc1-c1cccc(NC(=O)c2ccc3c(c2)CN(C(=O)N(C)C)C3)n1` [Example 12] gave an IC50 of 0.1 to 1 µM.

The compound `C[C@H](CO)n1nnnc1-c1cccc(NC(=O)c2cc3c(cn2)CCN(C(=O)NCc2ccccc2)C3)n1` [Example 129] registered an IC50 of 0.001 to 0.01 µM.

Turning to `CC(C)n1nnnc1-c1cccc(NC(=O)c2cc3c(cc2F)CCN(C(=O)N(C)CCC(F)(F)F)C3)n1` [Example 107], the IC50 fell in the range of 0.01 to 0.1 µM.

Compound `CC(=O)OC[C@@H](C)n1nnnc1-c1cccc(NC(=O)c2cc3c(cc2F)CCN(C(=O)N2CCCC2)C3)n1` [Example 73] had an IC50 of over 1 µM.

Take `CC(C)n1nnnc1-c1cccc(NC(=O)c2cc3c(cc2F)CCN(S(=O)(=O)C2CC2)C3)n1` [Example 88]: the IC50 was over 1 µM.

In the case of `CC(C)n1cnnc1-c1cccc(NC(=O)c2cc3c(cc2F)CCN(C(=O)N2CCOCC2)C3)n1` [Example 50], the half-maximal inhibitory concentration (IC50) lay in the range of 0.01 to 0.1 µM.

`CC(C)n1nnnc1-c1cccc(NC(=O)c2ccc3c(c2)CN(S(=O)(=O)CCC(F)(F)F)C3)n1` [Example 14] came in with an IC50 of over 1 µM.

`CC(C)n1cnnc1-c1cccc(NC(=O)c2ccc3c(c2)CN(C(=O)OC2CCCC2)CC3)n1` [Example 34]: the IC50 was in the range of 0.01 to 0.1 µM.

As for `CCN(C)C(=O)N1Cc2ccc(C(=O)Nc3cccc(-c4nnnn4C(C)C)n3)cc2C1` [Example 13], the IC50 was over 1 µM.

`CC1c2cc(C(=O)Nc3cccc(-c4nnnn4C(C)C)n3)c(F)cc2CCN1C(=O)OCc1ccccc1` (centres unmarked) [Example 74, benzyl 6-fluoro-7-((6-(1-isopropyl-1H-tetrazol-5-yl)pyridin-2-yl)carbamoyl)-1-methyl-3,4-dihydroisoquinoline-2(1H)-carboxylate] returned an IC50 of 0.1 to 1 µM.

Take `CC(C)n1cnnc1-c1cccc(NC(=O)c2cc3c(cc2F)CCN(C(=O)N(C)C)C3)n1` [Example 48]: the IC50 lay in the range of 0.001 to 0.01 µM.

As for `CC(C)n1cnnc1-c1cccc(NC(=O)c2ccc3c(c2)CN(S(=O)(=O)CCC(F)(F)F)C3)n1` [Example 4, N-(6-(4-isopropyl-4H-1,2,4-triazol-3-yl)pyridin-2-yl)-2-((3,3,3-trifluoropropyl)sulfonyl)isoindoline-5-carboxamide], the IC50 was 0.1 to 1 µM.

The compound `C[C@H](CO)n1nnnc1-c1cccc(NC(=O)c2cc3c(cn2)CCN(C(=O)OC(C)(C)C)C3)n1` [Example 143, tert-butyl (R)-7-((6-(1-(1-hydroxypropan-2-yl)-1H-tetrazol-5-yl)pyridin-2-yl)carbamoyl)-3,4-dihydro-2,6-naphthyridine-2(1H)-carboxylate] came in with an IC50 of 0.001 to 0.01 µM.

Consider `C[C@H](CO)n1nnnc1-c1cccc(NC(=O)c2cc3c(cn2)CCN(S(=O)(=O)C2CC2)C3)n1` [Example 148], for which the IC50 is 0.001 to 0.01 µM.

`CC1c2cc(C(=O)Nc3cccc(-c4nnnn4C(C)C)n3)c(F)cc2CCN1CC(=O)N1CCCC1` (centres unmarked) [Example 108, 6-fluoro-N-(6-(1-isopropyl-1H-tetrazol-5-yl)pyridin-2-yl)-1-methyl-2-(2-oxo-2-(pyrrolidin-1-yl)ethyl)-1,2,3,4-tetrahydroisoquinoline-7-carboxamide] came in with an IC50 of 0.1 to 1 µM.

Regarding `CCN(C)C(=O)N1CCc2cc(F)c(C(=O)Nc3cccc(-c4nnnn4C(C)C)n3)cc2C1` [Example 95], the IC50 was 0.01 to 0.1 µM.

`C[C@H](CO)n1nnnc1-c1cccc(NC(=O)c2cc3c(cn2)CCN(S(=O)(=O)c2ccccc2)C3)n1` [Example 120] yielded an IC50 of 0.001 to 0.01 µM.
